Data published in patent publication US11317629B2, “Liquid composition comprising mefentrifluconazole” (SUMITOMO CHEMICAL COMPANY, LIMITED, priority 2019, dated 2022).

How the values were obtained:
corn (variety: Pioneer) [1] = test: Phytotoxicity Test Example 1: compositions dripped into the whorl of corn plants, plant length; assay type: in vivo; settings: 10,000 ppm
Description: Liquid compositions comprising 10,000 ppm of mefentrifluconazole, 1.25 or 10% by volume of an oil adjuvant and water (hereinafter referred to as Present Composition 7 and Present Composition 8) were prepared by diluting mefentrifluconazole SC and an oil adjuvant (COC: Agri-Dex, containing 82% of heavy range paraffinic oil, 17% of surfactant, and 1% of other components, manufactured by Helena), respectively, with water and mixing them. Similarly to the Present Composition 7 and 8, liquid compositions (hereinafter referred to as Present Composition 9 and Present Composition 10) were prepared by replacing Agri-Dex with Sundance II (MSO, containing 90% of methylated seed oil and 10% of alkyl and aryl alkoxylates and phosphate esters). […]
A soil was filled into a plastic pot, and corn (variety: Pioneer) was seeded therein, and grown in a greenhouse for 4 days. […] After dripping, the plants were placed in the greenhouse for 8 days, then the plant lengths were measured. […]
From the plant lengths in each of the treated plants and the non-treated plants, the relative length of the compositions was determined according to the following “Formula 2”. […]

corn (variety: Pioneer) [2] = test: Phytotoxicity Test Example 2: compositions sprayed onto corn plants, plant length; assay type: in vivo; settings: 2,000 ppm
Description: A liquid composition comprising 2,000 ppm of mefentrifluconazole, 10% by volume of an oil adjuvant and water (hereinafter referred to as Present Composition 13) were prepared by diluting mefentrifluconazole SC and an oil adjuvant (COC: Agri-Dex, containing 82% of heavy range paraffinic oil, 17% of surfactant, and 1% of other components, manufactured by Helena) with water and mixing them. Similarly to the Present Composition 13, a liquid compositions (hereinafter referred to as Present Composition 14) were prepared by replacing Agri-Dex with Sundance II (MSO, containing 90% of methylated seed oil and 10% of alkyl and aryl alkoxylates and phosphate esters). Similarly to the Present Composition 13, a liquid composition (hereinafter referred to as Present Composition 15) were prepared by replacing Agri-Dex with Destiny (HSOC, containing 50% of methylated seed oil, 42% of sorbitan fatty acid esters and high fructose corn syrup, and 8% of other ingredients). […]
A soil was filled into a plastic pot, and corn (variety: Pioneer) was seeded therein, and grown in a greenhouse for 4 days. […] After spraying, the plants were placed in the greenhouse for 8 days, then the plant lengths were measured. […]
From the plant lengths in each of the treated plants and the non-treated plants, the relative length of the compositions was determined according to the above “Formula 2”.

SMILES: N#CC(CCc1ccc(Cl)cc1)(Cn1cncn1)c1ccccc1 (stereo not shown) [fenbuconazole]
- Effect of addition of oil adjuvants on retardation of corn plant (corn (variety: Pioneer) [1]; oil adjuvants 1.25 or 10% by volume): severely enhanced the retardation
- Retardation of corn plant without adjuvant (corn (variety: Pioneer) [1]; without adjuvant): retarded corn plant slightly
- Effect of addition of oil adjuvants on corn plant length (corn (variety: Pioneer) [2]; oil adjuvants 10% by volume): enhanced the retardation
- Effect on plant length without adjuvant (corn (variety: Pioneer) [2]; without adjuvant): did not effect on plant length
